Eleven compounds from PubChem BioAssay (NCI) can be followed below.

Some test systems named below: SNB-75 CNS; CCRF-CEM leukemia; OVCAR-3 ovarian; HL-60(TB) leukemia; OVCAR-5 ovarian; HCT-116 colon; OVCAR-4 ovarian; NCI-H522 lung; UO-31 renal; SR leukemia.
Common to all, as to experiment: DTP human tumour cell line panel, 48 h

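Results reflect a 48-hour exposure of cells in 96-well plates to compound at five concentrations. GI50 marks 50% less growth. TGI: concentration producing complete growth inhibition.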

In general, GI50 refers to the concentration at which growth is held to half of that of the control. The term TGI denotes the concentration giving total growth inhibition. A higher TGI goes with lower sensitivity of the cells. For the compound `CO[C@H]1CC[C@@]2(C)C(=CC[C@H]3[C@@H]4C[C@H](O)C[C@@]4(C)CC[C@@H]32)C1`, the GI50 is 3.41 µM in the assay on SNB-75 CNS; 3.05 µM in the assay with CCRF-CEM leukemia; 2.47 µM in the assay with OVCAR-3 ovarian; 3.69 µM in the assay on HL-60(TB) leukemia; 20.2 µM with OVCAR-5 ovarian; 4.88 µM in the assay with HCT-116 colon. Further, the GI50 in the assay on OVCAR-4 ovarian is 8.82 µM; in the assay on NCI-H522 lung, 3.96 µM; in the assay with UO-31 renal it was 6.53 µM; in the assay with SR leukemia, 2.72 µM. In addition, the TGI with SNB-75 CNS was found to be 23 µM; in the assay on CCRF-CEM leukemia it was 19.1 µM; in the assay with OVCAR-3 ovarian, 5.63 µM; in the assay on HL-60(TB) leukemia, 66.7 µM; in the assay with OVCAR-5 ovarian it was 44.1 µM; in the assay on HCT-116 colon it was 18.1 µM. For the same compound, the TGI is 54.2 µM in the assay on OVCAR-4 ovarian, 15.5 µM in the assay with NCI-H522 lung, 23.4 µM in the assay with UO-31 renal and 14.9 µM in the assay on SR leukemia.
For the compound `COc1cc(C(=O)n2nc(N3CCN(C)CC3)c3cc(N)ccc32)cc(OC)c1OC`, the GI50 in the assay with SNB-75 CNS was 4.39 µM; in the assay on CCRF-CEM leukemia it was 3.78 µM; in the assay with OVCAR-3 ovarian it was 2.39 µM; in the assay with HL-60(TB) leukemia, 2.16 µM; in the assay on OVCAR-5 ovarian it was 8.18 µM; in the assay with HCT-116 colon it was 3.84 µM. In addition, the GI50 with OVCAR-4 ovarian is 4.17 µM; in the assay with NCI-H522 lung, 2.01 µM; with UO-31 renal it was 2.87 µM; in the assay with SR leukemia it was 3.64 µM. Further, the TGI was over 100 µM in the assay on SNB-75 CNS; over 100 µM with CCRF-CEM leukemia; 5.62 µM in the assay with OVCAR-3 ovarian; 5.14 µM with HL-60(TB) leukemia; over 100 µM in the assay on OVCAR-5 ovarian; over 100 µM with HCT-116 colon. For the same compound, the TGI is over 100 µM in the assay with OVCAR-4 ovarian, 8.87 µM with NCI-H522 lung, 18.1 µM in the assay on UO-31 renal and 53.3 µM in the assay with SR leukemia.
Take `Clc1ccc2nc(CCSCCc3nc4ccc(Cl)cc4[nH]3)[nH]c2c1`: the total growth inhibition concentration (TGI) in the assay on SNB-75 CNS was determined as 34.5 µM; in the assay on CCRF-CEM leukemia, 41.6 µM; in the assay on HL-60(TB) leukemia, 8.09 µM; in the assay with OVCAR-5 ovarian it was 25.2 µM; in the assay with HCT-116 colon it was 19.3 µM; with OVCAR-4 ovarian, 28.5 µM. The results for the TGI in the assay on NCI-H522 lung, in the assay with UO-31 renal and with SR leukemia were 26.5 µM, 24.7 µM and 1.14 µM, respectively.
On to `O=C(C=Nc1ccccc1C(=O)[O-])c1cccs1.O=C(C=Nc1ccccc1C(=O)[O-])c1cccs1.[Cu+2]`, for which the concentration for total growth inhibition (TGI) is over 10 µM in the assay with SNB-75 CNS; over 10 µM in the assay on CCRF-CEM leukemia; over 100 µM in the assay with OVCAR-3 ovarian; over 100 µM in the assay with HL-60(TB) leukemia; over 100 µM in the assay with OVCAR-5 ovarian; over 100 µM in the assay on HCT-116 colon. For the same compound, the concentration for total growth inhibition (TGI) with NCI-H522 lung, with UO-31 renal and with SR leukemia was over 100 µM throughout.
As to `COc1ccc2c(c1)[n+]([O-])c(-c1nc3ccccc3s1)c(N)[n+]2[O-]`, the concentration for total growth inhibition (TGI) in the assay with SNB-75 CNS, in the assay on OVCAR-3 ovarian, with HL-60(TB) leukemia, in the assay on OVCAR-5 ovarian, in the assay with HCT-116 colon and with OVCAR-4 ovarian was over 100 µM in each case. In addition, the TGI in the assay on NCI-H522 lung, in the assay with UO-31 renal and in the assay on SR leukemia was over 100 µM in each case.
Turning to `CCOC(=O)/C=C1\Nc2ccccc2-n2nnnc21`, the TGI in the assay with SNB-75 CNS, with CCRF-CEM leukemia, in the assay with OVCAR-3 ovarian, in the assay on HL-60(TB) leukemia, with OVCAR-5 ovarian and with HCT-116 colon was over 100 µM in each case. Moreover, the TGI with OVCAR-4 ovarian, in the assay on UO-31 renal and in the assay with SR leukemia was over 100 µM in each case.
Consider `COc1ccc2c(c1)Cc1c-2c(NN)nc2ccccc12`, for which the GI50 in the assay on SNB-75 CNS is 42.8 µM; with OVCAR-3 ovarian it was 16.5 µM; in the assay with HL-60(TB) leukemia it was 27.9 µM; in the assay with OVCAR-5 ovarian, 35.5 µM; in the assay with HCT-116 colon, 24.4 µM; with OVCAR-4 ovarian it was 31.1 µM. For the same compound, the GI50 is 20.2 µM with NCI-H522 lung, 25.7 µM in the assay on UO-31 renal and 9.94 µM with SR leukemia. In addition, the total growth inhibition concentration (TGI) was over 100 µM in the assay with SNB-75 CNS; 38.4 µM in the assay with OVCAR-3 ovarian; over 100 µM with HL-60(TB) leukemia; over 100 µM in the assay on OVCAR-5 ovarian; 75.7 µM in the assay with HCT-116 colon; over 100 µM in the assay on OVCAR-4 ovarian. The TGI with NCI-H522 lung is 58.5 µM; with UO-31 renal, over 100 µM; with SR leukemia, over 100 µM.
For the compound `CSC(=S)NNC(=O)c1ccncc1`, the TGI turned out to be 65.7 µM with SNB-75 CNS; 43.1 µM in the assay on CCRF-CEM leukemia; 51.3 µM in the assay on OVCAR-3 ovarian; 39.9 µM with HL-60(TB) leukemia; 48.7 µM in the assay on OVCAR-5 ovarian; 38.3 µM in the assay on HCT-116 colon. Further, the TGI in the assay on NCI-H522 lung is 31.4 µM; in the assay on UO-31 renal, 31.6 µM; with SR leukemia, 47.3 µM.
Regarding `CCCCCCCCCC(=O)OCC1OC(n2cc(F)c(=O)[nH]c2=O)C(N)C(OC(=O)CCCCCCCCC)C1O` (centres undefined), the TGI with SNB-75 CNS turned out to be 34.4 µM; in the assay on CCRF-CEM leukemia it was 50.4 µM; in the assay on OVCAR-3 ovarian, 32.7 µM; in the assay with HL-60(TB) leukemia, 55.1 µM; in the assay on HCT-116 colon, 32.1 µM; with OVCAR-4 ovarian it was 31 µM. The TGI stood at 30.1 µM in the assay on NCI-H522 lung, 54.9 µM with UO-31 renal and 45.3 µM with SR leukemia.
In the case of `CC1(C)C2CCC13C(=O)C1OC3(C2)C2C(=O)c3c(O)ccc(O)c3C(=O)C12` (centres undefined), the GI50 with SNB-75 CNS is over 44.4 µM; in the assay on CCRF-CEM leukemia it was 4.45 µM; with HL-60(TB) leukemia it was 10.6 µM; in the assay with OVCAR-5 ovarian, 38.3 µM; in the assay on HCT-116 colon, 34.9 µM; in the assay with OVCAR-4 ovarian, over 100 µM. In addition, the GI50 in the assay with NCI-H522 lung was 38.8 µM; with UO-31 renal, 40.5 µM; with SR leukemia, 5.17 µM. The TGI in the assay on SNB-75 CNS is over 69.3 µM; in the assay with CCRF-CEM leukemia, over 46.9 µM; in the assay with HL-60(TB) leukemia, over 50.2 µM; in the assay with OVCAR-5 ovarian, over 100 µM; in the assay on HCT-116 colon, over 100 µM; with OVCAR-4 ovarian, over 100 µM. Moreover, the figures for the concentration for total growth inhibition (TGI) in the assay on NCI-H522 lung, in the assay on UO-31 renal and with SR leukemia were over 100 µM, over 100 µM and 17.1 µM, respectively.
`CCN(CC)c1ccc2c(c1)N=C1N=CC=CN1C2(c1ccc(N(C)C)cc1)c1ccc(N(C)C)cc1`: the total growth inhibition concentration (TGI) is 24.4 µM with SNB-75 CNS; 23.5 µM in the assay on CCRF-CEM leukemia; 6.54 µM in the assay on OVCAR-3 ovarian; 3.3 µM in the assay on HL-60(TB) leukemia; 27.4 µM with OVCAR-5 ovarian; 11.8 µM with HCT-116 colon. Besides, the results for the TGI in the assay with NCI-H522 lung, in the assay with UO-31 renal and in the assay with SR leukemia were 5.12 µM, 22 µM and 12.9 µM, respectively.
